Read-outs that look alike come from different tables or passages of the source.

One test deals with GDF8. Put plainly: AlphaScreen SureFire p-SMAD3 (Ser423/425) assay, GDF8-stimulated cells. The format is cell-based. Particulars: Mus musculus. An outline of the steps:
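A SureFire AlphaScreen assay measured phosphorylation of endogenous SMAD-3 at Ser423/425 in cell lysates. Cells were treated with three-fold serially diluted compounds in DMSO for about 10 minutes, then stimulated with GDF8. After medium removal, cells were lysed in 1× Lysis Buffer (about 25 μL) with gentle shaking for 5-10 minutes.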
Background: In Alpha technology, singlet oxygen from a donor bead excites a nearby acceptor bead.

The next test deals with TGF-β. Put plainly: AlphaScreen SureFire p-SMAD3 (Ser423/425) assay, TGF-β-stimulated cells. It counts as cell-based. Particulars: Mus musculus. An outline of the steps:
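The p-SMAD-3 (Ser423/425) SureFire assay measured phosphorylation of endogenous SMAD-3 in cell lysates. Cells were plated overnight in collagen-coated plates, exposed to three-fold serially diluted compounds for about 10 minutes, then stimulated with TGFβ. Lysates (5 μL) received acceptor bead mix for 2 hours, then donor beads for 1½ hours before AlphaScreen reading.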

Where [1] appears, read: MPC-11, p-SMAD3 (Ser423/425) AlphaScreen in cell lysate, MPC11, GDF8 stimulation, read-out: GDF8: inhibition of GDF8 signaling, GDF pSMAD (MPC11).
[2] abbreviates: p-SMAD3 (Ser423/425) AlphaScreen in cell lysate, MPC-11, TGF-β stimulation, read-out: TGF-β: inhibition of TGF-β signaling, TGF-β pSMAD (MPC-11).
Setting [3] is: MPC-11, read-out: GDF8: inhibition of GDF8 signaling, GDF pSMAD (MPC11), p-SMAD3 (Ser423/425) AlphaScreen in cell lysate, GDF8 stimulation.
Where [4] appears, read: MPC-11, read-out: TGF-β: inhibition of TGF-β signaling, TGF-β pSMAD (MPC-11), p-SMAD3 (Ser423/425) AlphaScreen in cell lysate, TGF-β stimulation.

Regarding `Fc1ccc(-c2nc3n(c2-c2ccc4[nH]ncc4c2)CCC3)cc1F` [Compound 205, 5-(2-(3,4-difluorophenyl)-6,7-dihydro-5H-pyrrolo[1,2-a]imidazol-3-yl)-1H-indazole], the IC50 with GDF8 (setting [1]) and in the test with TGF-β (setting [2]) was 100 to 1000 nM in each case.

With `Fc1ccc(-c2nc3n(c2-c2ccc4cn[nH]c4c2)CCC3)cc1F` [Compound 206, 6-(2-(3,4-difluorophenyl)-6,7-dihydro-5H-pyrrolo[1,2-a]imidazol-3-yl)-1H-indazole], the IC50 is 100 to 1000 nM in the test with GDF8 (setting [1]) and greater than 1000 nM in the test with TGF-β (setting [2]).

As to `Fc1ccc(-c2nc3n(c2-c2ccc4ncsc4c2)CCC3)cc1F` [Compound 207, 6-(2-(3,4-difluorophenyl)-6,7-dihydro-5H-pyrrolo[1,2-a]imidazol-3-yl)benzo[d]thiazole], the IC50 in the test with GDF8 (setting [1]) and in the test with TGF-β (setting [2]) was 100 to 1000 nM in each case.

In the case of `Fc1ccc(-c2nc3n(c2-c2ccc4nccnc4c2)CCC3)cc1F` [Compound 208, 6-(2-(3,4-difluorophenyl)-6,7-dihydro-5H-pyrrolo[1,2-a]imidazol-3-yl)quinoxaline], the IC50 in the test with GDF8 (setting [1]) is 100 to 1000 nM; in the test on TGF-β (setting [2]), greater than 1000 nM.

For `Fc1cccc(-c2nc3n(c2-c2ccc4ncccc4c2)CCC3)c1` [Compound 209, 6-(2-(3-fluorophenyl)-6,7-dihydro-5H-pyrrolo[1,2-a]imidazol-3-yl)quinoline], the IC50 with GDF8 (setting [1]) is 100 to 1000 nM; with TGF-β (setting [2]), greater than 1000 nM.

As to `Fc1ccccc1-c1nc2n(c1-c1ccc3ncccc3c1)CCC2` [Compound 210, 6-(2-(2-fluorophenyl)-6,7-dihydro-5H-pyrrolo[1,2-a]imidazol-3-yl)quinoline], the results for the IC50 in the test on GDF8 (setting [1]) and in the test with TGF-β (setting [2]) were 100 to 1000 nM and greater than 1000 nM, respectively.

In the case of `Fc1ccc(-c2nc3n(c2-c2ccc4ncccc4c2)CCC3)c(F)c1` [Compound 211, 6-(2-(2,4-difluorophenyl)-6,7-dihydro-5H-pyrrolo[1,2-a]imidazol-3-yl)quinoline], the IC50 in the test on GDF8 (setting [1]) and in the test on TGF-β (setting [2]) was 100 to 1000 nM throughout.

In the case of `Fc1cccc(F)c1-c1nc2n(c1-c1ccc3[nH]ncc3c1)CCC2` [Compound 212, 5-(2-(2,6-difluorophenyl)-6,7-dihydro-5H-pyrrolo[1,2-a]imidazol-3-yl)-1H-indazole], the IC50 with GDF8 (setting [1]) and in the test on TGF-β (setting [2]) was greater than 1000 nM in each case.

Turning to `Fc1cccc(F)c1-c1nc2n(c1-c1ccc3cn[nH]c3c1)CCC2` [Compound 213, 6-(2-(2,6-difluorophenyl)-6,7-dihydro-5H-pyrrolo[1,2-a]imidazol-3-yl)-1H-indazole], the IC50 in the test with GDF8 (setting [1]) and with TGF-β (setting [2]) was greater than 1000 nM each time.

Take `Fc1cccc(F)c1-c1nc2n(c1-c1ccc3nccnc3c1)CCC2` [Compound 215, 6-(2-(2,6-difluorophenyl)-6,7-dihydro-5H-pyrrolo[1,2-a]imidazol-3-yl)quinoxaline]: the IC50 in the test on GDF8 (setting [1]) and with TGF-β (setting [2]) was greater than 1000 nM in each case.

Consider `Fc1cccc(F)c1-c1nc2n(c1-c1ccc3ncccc3c1)CCC2` [Compound 216, 6-(2-(2,6-difluorophenyl)-6,7-dihydro-5H-pyrrolo[1,2-a]imidazol-3-yl)quinoline], for which the IC50 with GDF8 (setting [1]) and in the test with TGF-β (setting [2]) was greater than 1000 nM throughout.

`Fc1cc(F)c(-c2nc3n(c2-c2ccc4cn[nH]c4c2)CCC3)cc1F` [Compound 217, 6-(2-(2,4,5-trifluorophenyl)-6,7-dihydro-5H-pyrrolo[1,2-a]imidazol-3-yl)-1H-indazole]: the IC50 with GDF8 (setting [1]) and with TGF-β (setting [2]) was 100 to 1000 nM throughout.

In the case of `Fc1cc(F)c(-c2nc3n(c2-c2ccc4ncsc4c2)CCC3)cc1F` [Compound 218, 6-(2-(2,4,5-trifluorophenyl)-6,7-dihydro-5H-pyrrolo[1,2-a]imidazol-3-yl)benzo[d]thiazole], the IC50 with GDF8 (setting [1]) was less than 50 nM; with TGF-β (setting [2]), 50 to 100 nM.

On to `Fc1cc(F)c(-c2nc3n(c2-c2ccc4nccnc4c2)CCC3)cc1F` [Compound 219, 6-(2-(2,4,5-trifluorophenyl)-6,7-dihydro-5H-pyrrolo[1,2-a]imidazol-3-yl)quinoxaline], for which the IC50 in the test on GDF8 (setting [1]) is less than 50 nM; with TGF-β (setting [2]) it was 100 to 1000 nM.

For the compound `Fc1cc(F)c(-c2nc3n(c2-c2ccc4[nH]ncc4c2)CCC3)cc1F` [Compound 220, 5-(2-(2,4,5-trifluorophenyl)-6,7-dihydro-5H-pyrrolo[1,2-a]imidazol-3-yl)-1H-indazole], the IC50 with GDF8 (setting [1]) fell in the range of 50 to 100 nM; with TGF-β (setting [2]) it was 100 to 1000 nM.

In the case of `Fc1ccc(F)c(-c2nc3n(c2-c2ccc4[nH]ncc4c2)CCC3)c1F` [Compound 221, 5-(2-(2,3,6-trifluorophenyl)-6,7-dihydro-5H-pyrrolo[1,2-a]imidazol-3-yl)-1H-indazole], the IC50 in the test with GDF8 (setting [1]) is 100 to 1000 nM; in the test on TGF-β (setting [2]) it was greater than 1000 nM.

As to `Fc1ccc(F)c(-c2nc3n(c2-c2ccc4ncsc4c2)CCC3)c1F` [Compound 222, 6-(2-(2,3,6-trifluorophenyl)-6,7-dihydro-5H-pyrrolo[1,2-a]imidazol-3-yl)benzo[d]thiazole], the IC50 with GDF8 (setting [1]) and in the test with TGF-β (setting [2]) was 100 to 1000 nM each time.

In the case of `Fc1cccc(-c2nc3n(c2-c2ccc4c(c2)OCO4)CCC3)c1` [Compound 223, 3-(benzo[d][1,3]dioxol-5-yl)-2-(3-fluorophenyl)-6,7-dihydro-5H-pyrrolo[1,2-a]imidazole], the IC50 with GDF8 (setting [1]) and with TGF-β (setting [2]) was greater than 1000 nM throughout.

Turning to `Fc1ccc(-c2nc3n(c2-c2ccc4nccnc4c2)CCC3)c(F)c1F` [Compound 224, 6-(2-(2,3,4-trifluorophenyl)-6,7-dihydro-5H-pyrrolo[1,2-a]imidazol-3-yl)quinoxaline], the IC50 with GDF8 (setting [1]) is 100 to 1000 nM; with TGF-β (setting [2]), greater than 1000 nM.

Regarding `Fc1ccc(-c2nc3n(c2-c2ccc4[nH]ncc4c2)CCC3)c(F)c1F` [Compound 225, 5-(2-(2,3,4-trifluorophenyl)-6,7-dihydro-5H-pyrrolo[1,2-a]imidazol-3-yl)-1H-indazole], the IC50 with GDF8 (setting [3]) and in the test on TGF-β (setting [4]) was 100 to 1000 nM throughout.

Turning to `Fc1ccc(-c2nc3n(c2-c2ccc4ncsc4c2)CCC3)c(F)c1F` [Compound 226, 6-(2-(2,3,4-trifluorophenyl)-6,7-dihydro-5H-pyrrolo[1,2-a]imidazol-3-yl)benzo[d]thiazole], the IC50 in the test on GDF8 (setting [3]) and in the test on TGF-β (setting [4]) was 100 to 1000 nM throughout.

As for `Fc1cc(-c2nc3n(c2-c2ccc4nccnc4c2)CCC3)cc(F)c1F` [Compound 227, 6-(2-(3,4,5-trifluorophenyl)-6,7-dihydro-5H-pyrrolo[1,2-a]imidazol-3-yl)quinoxaline], the IC50 with GDF8 (setting [1]) was 100 to 1000 nM; with TGF-β (setting [2]), greater than 1000 nM.

Take `Fc1cc(-c2nc3n(c2-c2ccc4[nH]ncc4c2)CCC3)cc(F)c1F` [Compound 228, 5-(2-(3,4,5-trifluorophenyl)-6,7-dihydro-5H-pyrrolo[1,2-a]imidazol-3-yl)-1H-indazole]: the IC50 in the test on GDF8 (setting [3]) and in the test with TGF-β (setting [4]) was 100 to 1000 nM in each case.

As for `Fc1cc(-c2nc3n(c2-c2ccc4ncsc4c2)CCC3)cc(F)c1F` [Compound 229, 6-(2-(3,4,5-trifluorophenyl)-6,7-dihydro-5H-pyrrolo[1,2-a]imidazol-3-yl)benzo[d]thiazole], the IC50 was 100 to 1000 nM in the test with GDF8 (setting [3]) and greater than 1000 nM in the test on TGF-β (setting [4]).

As to `Fc1cc(F)cc(-c2nc3n(c2-c2ccc4[nH]ncc4c2)CCC3)c1` [Compound 230, 5-(2-(3,5-difluorophenyl)-6,7-dihydro-5H-pyrrolo[1,2-a]imidazol-3-yl)-1H-indazole], the values for the IC50 in the test on GDF8 (setting [3]) and in the test on TGF-β (setting [4]) were 100 to 1000 nM and greater than 1000 nM, respectively.

(Values after US10696693B2, “Fused imidazole derivatives as TGF-beta inhibitors” (Rigel Pharmaceuticals, Inc., priority 2014, dated 2020).)
